Holding throughout (assay type): cell-based
In assay [1] the target is T1, Mu-type opioid receptor (Homo sapiens, UniProt P35372). In words: Displacement of [3H]-DAMGO from human mu opiod receptor expressed in CHO cells at 10 uM incubated for 60 mins by liquid scintillation counting method relative to control. Background: Displacement assays read how much labelled ligand stays bound in the presence of the test substance.
Assay [2] deals with T1, Mu-type opioid receptor. Description: Displacement of [3H]-DAMGO from human mu opiod receptor expressed in CHO cells at 1 uM incubated for 60 mins by liquid scintillation counting method relative to control.
Assay [3] has as its target T2, Kappa-type opioid receptor (Homo sapiens, UniProt P41145). Description: Displacement of [3H]-U69593 from human kappa opiod receptor expressed in CHO cells at 10 uM incubated for 60 mins by liquid scintillation counting method relative to control.
Assay [4] deals with T2, Kappa-type opioid receptor. In words: Displacement of [3H]-U69593 from human kappa opiod receptor expressed in CHO cells at 1 uM incubated for 60 mins by liquid scintillation counting method relative to control.
The target of assay [5] is T3, Delta-type opioid receptor (Homo sapiens, UniProt P41143). Description: Displacement of [3H]-DPDPE from human delta opiod receptor expressed in human HEK293 cells at 10 uM incubated for 60 mins by liquid scintillation counting method relative to control.
Assay [6] deals with T3, Delta-type opioid receptor. In words: Displacement of [3H]-DPDPE from human delta opiod receptor expressed in human HEK293 cells at 1 uM incubated for 60 mins by liquid scintillation counting method relative to control.

For 23 molecules, inhibition results are on record in ChEMBL document CHEMBL4619756, “Design, synthesis and biological evaluation of N-hydroxy-aminobenzyloxyarylamide analogues as novel selective κ opioid receptor antagonists” (Bioorg Med Chem Lett, 2020).

T2 sequence (P41145 whole entry): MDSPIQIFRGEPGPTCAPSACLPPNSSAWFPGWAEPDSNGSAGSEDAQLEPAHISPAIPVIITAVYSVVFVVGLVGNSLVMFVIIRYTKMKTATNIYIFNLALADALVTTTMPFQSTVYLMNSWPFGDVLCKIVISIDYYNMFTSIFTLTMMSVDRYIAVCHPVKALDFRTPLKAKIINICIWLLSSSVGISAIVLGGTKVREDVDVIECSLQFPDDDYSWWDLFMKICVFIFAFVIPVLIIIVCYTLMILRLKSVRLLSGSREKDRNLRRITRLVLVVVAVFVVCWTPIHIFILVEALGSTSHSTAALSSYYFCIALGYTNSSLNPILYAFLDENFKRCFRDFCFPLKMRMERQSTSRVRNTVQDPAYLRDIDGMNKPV
T3 sequence (P41143 whole entry): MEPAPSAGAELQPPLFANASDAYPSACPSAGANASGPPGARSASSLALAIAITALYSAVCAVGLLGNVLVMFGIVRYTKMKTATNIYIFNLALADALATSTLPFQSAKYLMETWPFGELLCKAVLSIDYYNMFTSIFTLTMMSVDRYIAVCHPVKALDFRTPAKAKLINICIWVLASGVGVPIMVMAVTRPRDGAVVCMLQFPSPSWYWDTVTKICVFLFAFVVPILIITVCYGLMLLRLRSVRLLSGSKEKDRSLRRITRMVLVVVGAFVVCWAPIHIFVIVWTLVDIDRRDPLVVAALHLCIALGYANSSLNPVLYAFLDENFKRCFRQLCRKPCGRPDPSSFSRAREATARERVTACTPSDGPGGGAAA
T1 sequence (P35372 whole entry): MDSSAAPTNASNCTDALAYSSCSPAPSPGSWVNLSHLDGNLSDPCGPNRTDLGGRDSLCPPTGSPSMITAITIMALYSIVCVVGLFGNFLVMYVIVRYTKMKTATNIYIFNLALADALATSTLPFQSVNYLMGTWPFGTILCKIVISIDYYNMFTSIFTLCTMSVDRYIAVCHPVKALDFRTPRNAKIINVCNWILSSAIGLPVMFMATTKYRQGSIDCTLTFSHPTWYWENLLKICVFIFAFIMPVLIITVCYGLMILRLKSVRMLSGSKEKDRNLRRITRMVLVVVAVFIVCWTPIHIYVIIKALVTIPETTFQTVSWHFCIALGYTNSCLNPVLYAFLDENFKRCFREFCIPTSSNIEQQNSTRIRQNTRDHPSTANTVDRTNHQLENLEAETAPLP

For the molecule `O=c1[nH]oc2c(F)c(Oc3ccc(CN4CCCC4c4cccc(Cl)c4)cc3)ccc12` (stereo unspecified), the inhibition in assay [1] turned out to be 0%; in assay [2], 0%; in assay [3], 57.2%; in assay [4], 20%; in assay [5] it was 38.2%; in assay [6], 0%.

Take `Cc1cc(C)cc(C2CCCN2Cc2ccc(Oc3ccc4c(=O)[nH]oc4c3Cl)cc2)c1` (stereo unspecified): the inhibition in assay [1] stood at 0%; in assay [2] it was 0%; in assay [3], 11.6%; in assay [4] it was 0%; in assay [5], 22.3%; in assay [6], 0%.

Consider `Cc1cc(C)cc(C2CCCN2Cc2ccc(Oc3ccc4c(=O)[nH]oc4c3)c(F)c2)c1` (stereo unspecified), for which the inhibition in assay [1] amounted to 9.5%; in assay [2], 0%; in assay [3] it was 85.2%; in assay [4], 37.2%; in assay [5], 10.7%; in assay [6], 0%.

With `COc1ccc(C2CCCN2Cc2ccc(Oc3ccc4c(=O)[nH]oc4c3)cc2)cc1` (stereo unspecified), the inhibition turned out to be 50.6% in assay [1]; 42.2% in assay [2]; 66.9% in assay [3]; 55.7% in assay [4]; 40.7% in assay [5]; 33.3% in assay [6].

Take `COc1cccc(C2CCCN2Cc2ccc(Oc3ccc(C(=O)NO)cc3)cc2)c1` (stereo unspecified): the inhibition is 31.6% in assay [1]; 13.5% in assay [2]; 84.3% in assay [3]; 33.8% in assay [4]; 7.1% in assay [5]; 0% in assay [6].

As for `O=c1[nH]oc2c(F)c(Oc3ccc(CN4CCCC4c4cccc(F)c4)cc3)ccc12` (stereo unspecified), the inhibition in assay [1] came to 0%; in assay [2] it was 0%; in assay [3], 24.8%; in assay [4], 0%; in assay [5], 52.5%; in assay [6], 20.7%.

Regarding `COc1cc(CN2CCCC2c2cc(C)cc(C)c2)ccc1Oc1ccc2c(=O)[nH]oc2c1` (stereo unspecified), the inhibition in assay [1] stood at 59.2%; in assay [2] it was 14.3%; in assay [3], 73.2%; in assay [4], 38.4%; in assay [5], 49.1%; in assay [6] it was 11.6%.

Regarding `COc1ccc(C2CCCN2Cc2ccc(Oc3ccc(C(=O)NO)cc3F)cc2)cc1` (stereo unspecified), the inhibition in assay [1] is 43.1%; in assay [2] it was 11%; in assay [3] it was 77.4%; in assay [4], 34.9%; in assay [5], 15.8%; in assay [6], 6.2%.

As to `Cc1cc(C)cc(C2CCCN2Cc2ccc(Oc3ccc4c(=O)[nH]oc4c3)c(Cl)c2)c1` (stereo unspecified), the inhibition in assay [1] came to 9.8%; in assay [2], 0%; in assay [3], 69.8%; in assay [4], 23.8%; in assay [5], 16.9%; in assay [6], 0%.

In the case of `Cc1cc(C)cc(C2CCCN2Cc2ccc(Oc3ccc4c(=O)[nH]oc4c3F)c(Cl)c2)c1` (stereo unspecified), the inhibition worked out at 45.7% in assay [1]; 21.4% in assay [2]; 47.4% in assay [3]; 20.1% in assay [4]; 32.9% in assay [5]; 18% in assay [6].

As for `COc1ccc(C2CCCN2Cc2ccc(Oc3ccc4c(=O)[nH]oc4c3F)cc2)cc1` (stereo unspecified), the inhibition was found to be 41% in assay [1]; 19.2% in assay [2]; 19.1% in assay [3]; 0% in assay [4]; 49.7% in assay [5]; 23.7% in assay [6].

In the case of `Cc1cc(C)cc(C2CCCN2Cc2ccc(Oc3ccc4c(=O)[nH]oc4c3F)cc2)c1` (stereo unspecified), the inhibition in assay [1] was determined as 21.1%; in assay [2] it was 0%; in assay [3] it was 36.4%; in assay [4], 0%; in assay [5], 33.3%; in assay [6], 0%.

Take `COc1ccc(C2CCCN2Cc2ccc(Oc3ccc4c(=O)[nH]oc4c3Cl)cc2)cc1` (stereo unspecified): the inhibition in assay [1] was determined as 32.2%; in assay [2] it was 17.7%; in assay [3], 39.9%; in assay [4], 18.8%; in assay [5], 39.3%; in assay [6], 18%.

With `O=c1[nH]oc2c(Cl)c(Oc3ccc(CN4CCCC4c4ccc(Cl)cc4)cc3)ccc12` (stereo unspecified), the inhibition amounted to 41.1% in assay [1]; 21.7% in assay [2]; 0% in assay [3]; 0% in assay [4]; 52.2% in assay [5]; 23.9% in assay [6].

On to `O=C(NO)c1ccc(Oc2ccc(CN3CCCC3c3cccc(Cl)c3)cc2)c(F)c1` (stereo unspecified), for which the inhibition in assay [1] worked out at 57.3%; in assay [2], 16.5%; in assay [3], 54.7%; in assay [4], 30.9%; in assay [5] it was 26.4%; in assay [6] it was 0%.

With `O=c1[nH]oc2c(Cl)c(Oc3ccc(CN4CCCC4c4cccc(F)c4)cc3)ccc12` (stereo unspecified), the inhibition was 0% in assay [1]; 0% in assay [2]; 16.2% in assay [3]; 0% in assay [4]; 37.9% in assay [5]; 8.5% in assay [6].

`COc1cccc(C2CCCN2Cc2ccc(Oc3ccc4c(=O)[nH]oc4c3F)cc2)c1` (stereo unspecified): the inhibition in assay [1] came to 6.2%; in assay [2], 0%; in assay [3], 29%; in assay [4], 9.7%; in assay [5], 28.4%; in assay [6], 0%.

As to `Cc1cc(C)cc(C2CCCN2Cc2ccc(Oc3ccc(C(=O)NO)cc3)cc2)c1` (stereo unspecified), the inhibition is 36% in assay [1]; 10.7% in assay [2]; 84.7% in assay [3]; 39.5% in assay [4]; 6.5% in assay [5]; 0% in assay [6].

In the case of `O=C(NO)c1ccc(Oc2ccc(CN3CCCC3c3ccccc3)cc2)cc1` (stereo unspecified), the inhibition came to 45.9% in assay [1]; 21.9% in assay [2]; 85.3% in assay [3]; 51.6% in assay [4]; 13.8% in assay [5]; 0% in assay [6].

As for `COc1cccc(C2CCCN2Cc2ccc(Oc3ccc4c(=O)[nH]oc4c3Cl)cc2)c1` (stereo unspecified), the inhibition in assay [1] came to 0%; in assay [2], 0%; in assay [3] it was 0%; in assay [4], 0%; in assay [5] it was 60.6%; in assay [6], 19.7%.

As to `O=c1[nH]oc2c(F)c(Oc3ccc(CN4CCCC4c4ccc(Cl)cc4)cc3)ccc12` (stereo unspecified), the inhibition in assay [1] came out at 35.8%; in assay [2] it was 22.5%; in assay [3] it was 39.2%; in assay [4] it was 0%; in assay [5], 9.6%; in assay [6] it was 0%.

For the molecule `O=C(NO)c1ccc(Oc2ccc(CN3CCCC3c3ccc(Cl)cc3)cc2)c(F)c1` (stereo unspecified), the inhibition in assay [1] stood at 25.8%; in assay [2], 0%; in assay [3], 74.3%; in assay [4], 46.1%; in assay [5], 34.4%; in assay [6], 25.6%.

With `COc1cccc(C2CCCN2Cc2ccc(Oc3ccc(C(=O)NO)cc3F)cc2)c1` (stereo unspecified), the inhibition is 64.4% in assay [1], 22.6% in assay [2], 80.4% in assay [3] and 42.5% in assay [4].

Usually inhibition stands for the percentage by which the read-out fell short of the control. High values mean a strong effect, low ones a weak effect.
